Experimental data: patent publication US20080214517A1, “Modulation of the Expression of Estrogen Receptors for the Prevention or Treatment of Heart Disease” (priority 2003, published 2008)

Key:
[1] = local delivery following coronary angioplasty in pigs; cited from earlier work
[2] = test system: p38 MAPK phosphorylation; experiment: Western blot of p38 MAPK phosphorylation in PSMC; type: cell-based, porcine; details: PDGF-BB stimulation 30 minutes; 17βE 10^−8 mol/L 30-minute pretreatment
Experimental: (§1) FIG. 4: Contribution of ERα and ERβ on p42/44 and p38 MAPK activation in PSMC. PSMC were seeded at 1×10^6 cells/100-mm culture plate and grown to confluence. Cells were treated either with antisense or scrambled oligomers as described in the methods. Cells were then treated with or without 17βE (10^−8 mol/L) for 30 minutes and stimulated 5 minutes for p42/44 MAPK (A) or 30 minutes for p38 MAPK (B) with PDGF-BB. Proteins were detected by Western blot analyses. Image densitometry results are given as relative expression (%) as compared to control PBS-treated cells.
(§2) The efficiency and specificity of our antisense oligomers to prevent the expression of targeted proteins were evaluated by Western blot analyses. Culture medium of confluent PAEC and PSMC (100-mm tissue culture plate) was removed, the cells were rinsed with Dulbecco's modified eagle medium (DMEM; Life Technologies Inc., Carlsbad, Calif.) and trypsinized (trypsine-EDTA; Life Technologies). Cells were resuspended in DMEM containing 5% of fetal bovine serum (FBS) (Hyclone Laboratories, Logan, Utah) and antibiotics (penicillin and streptomycin, Sigma, St-Louis, Mo.), and a cell count was obtained with a Coulter counter Z1 (Coulter Electronics, Luton, UK). […] Plates were incubated at 4° C. for 30 minutes and scraped, and the protein concentration was determined with a Bio-Rad protein assay kit (Bio-Rad, Hercules, Calif.). […]

[3] = test system: porcine smooth muscle cells (PSMC); experiment: Mitogenic assay, PSMC proliferation; type: cell-based; details: 17βE (10^−8 mol/L); 72 hours
Experimental: (§3) FIG. 2: Contribution of ERα and ERβ on PSMC proliferation. PSMC were seeded at 1×10^4 cells/well and stimulated with or without antisense oligomers as described in the methods. Cells were then stimulated with or without 17βE (10^−8 mol/L) and a cell count achieved 72 hours post-treatment. The values are means of cell counts obtained from 6 wells for each treatment. *, P<0.05 as compared to day 0; t, P<0.05 as compared to control (1% FBS); *, P<0.05 as compared to cells treated with 17βE (10% mol/L).
(§4) Confluent PAEC and PSMC were rinsed with DMEM and trypsinized. Cells were resuspended in 10 mL of DMEM, 5% FBS, and antibiotics, and a cell count was obtained by using a Coulter counter Z1. PAEC and PSMC were initially seeded at 1×10^4 cells/well of 24-well tissue culture plates stimulated for 24 hours in DMEM, 5% FBS, and antibiotics with or without antisense oligomers (10^−6 mol/L), and starved for 48 hours in DMEM, 0.1% FBS, and antibiotics with or without antisense oligomers (10^−6 mol/L daily) for Go synchronization. The cells were stimulated for 72 hours in DMEM, 1% FBS, antibiotics with or without antisense oligomers (10^−6 mol/L daily) and with or without of 17βE (10^−8 mol/L). After trypsinization, cell number was determined by using a Coulter counter Z1.

[4] = test system: porcine aortic endothelial cells (PAEC); experiment: Mitogenic assay, PAEC proliferation; type: cell-based; details: 17βE 10^−8 mol/L, compared to cells treated with FBS 1%; 3 days
Experimental: as §3, with “FIG. 5:” for “FIG. 2:”, “on PAEC” for “on PSMC”, “proliferation. PAEC” for “proliferation. PSMC”, “0; †,” for “0; t,”, “FBS); ‡,” for “FBS); *,”, “17βE (10^−8” for “17βE (10%”
as §4

[5] = test system: porcine aortic endothelial cells (PAEC); experiment: Chemotactic assay (modified Boyden chamber), PAEC migration; type: cell-based; details: 17βE 10^−8 mol/L, 5 hours, compared to cells treated with FBS 1%
Experimental: FIG. 6: Contribution of ERα and ERβ on PAEC migration. PAEC were trypsinized and resuspended in DMEM; 2.5×10^5 cells/well of a six-well tissue culture plate were stimulated with or without antisense oligomers as described in the methods. 2.5×10^4 cells were added in the higher compartment of the modified Boyden chamber apparatus with or without antisense oligomers, and the lower chamber was filled with DMEM 1% FBS, and antibiotics with or without 17βE (10^−8 mol/L). Five hours postincubation at 37° C., the migrated cells were fixed, stained and counted by using a microscope adapted to a digitized video camera. The values are represented as relative mean of migrating cells/mm^2 from 6 chambers for each treatment. *, P<0.05 as compared to unstimulated cells; t, P<0.05 as compared to cells treated with 17βE (10^−8 mol/L).
(§5) Cell migration was evaluated using a modified Boyden 48-well microchamber kit (NeuroProbe, Cabin John, Md.). Near confluent PAEC and PSMC were rinsed with DMEM and trypsinized. Cells were resuspended in DMEM, 5% FBS, and antibiotics, and a cell count was obtained. […] The filter was then mounted on a glass slide, and migrated cells were counted using a microscope adapted to a video camera to obtain a computer-digitized image. […]

[6] = test system: p42/44 MAPK phosphorylation; experiment: Western blot of p42/44 MAPK phosphorylation in PAEC; type: cell-based, porcine; details: 17βE 10^−8 mol/L, 5 minutes; vs PBS-treated PAEC
Experimental: (§6) FIG. 7: Contribution of ERα and ERβ on p42144 and p38 MAPK activation in PAEC. PAEC were seeded at 1×10^6 cells/100-mm culture plate and grown to confluence. Cells were treated either with antisense or scrambled oligomers as described in the methods. Cells were then treated with or without 17βE (10^−8 mol/L) for 5 minutes for p42/44 MAPK activation (A) or 30 minutes for p38 MAPK stimulation (B). Proteins were detected by Western blot analyses. Image densitometry results are given as relative expression (%) as compared to control PBS-treated cells.
as §2

[7] = test system: p42/44 MAPK phosphorylation; experiment: Western blot of p42/44 MAPK phosphorylation in PSMC; type: cell-based, porcine; details: PDGF-BB stimulation 5 minutes; 17βE 10^−8 mol/L 30-minute pretreatment
Experimental: as §1, §2

[8] = test system: porcine smooth muscle cells (PSMC); experiment: Chemotactic assay (modified Boyden chamber), PSMC migration; type: cell-based; details: PDGF-BB 10 ng/mL
Experimental: FIG. 3: Contribution of ERα and ERβ on PSMC migration. PSMC were trypsinized and resuspended in DMEM; 2.5×10^5 cells/well of a six-well tissue culture plate were stimulated with or without antisense oligomers as described in the methods. 2.5×10^4 cells were added in the higher compartment of the modified Boyden chamber apparatus with or without antisense oligomers, and the lower chamber was filled with DMEM 1% FBS, and antibiotics with or without PDGF-BB (10 ng/ml). Five hours postincubation at 37° C., the migrated cells were fixed, stained and counted by using a microscope adapted to a digitized video camera. The values are represented as relative mean of migrating cells from 6 chambers for each treatment. *, P<0.05 as compared unstimulated cells; †, P<0.05 as compared to cells treated with PDGF-BB; ‡, P<0.05 as compared to cells treated with 17βE (10^−8 mol/L).
as §5

[9] = test system: p38 MAPK phosphorylation; experiment: Western blot of p38 MAPK phosphorylation in PAEC; type: cell-based, porcine; details: 17βE, 30 minutes stimulation; vs PBS-treated PAEC
Experimental: as §6, §2

Molecule	endothelial NO synthase (eNOS) expression (in words) [1]	neointimal formation (in words) [1]	reendothelialization process (in words) [1]	p38 MAPK phosphorylation in PSMC (in words) [2]	prevention of PSMC proliferation mediated by FBS 1% [3] [%]	enhancement of PAEC proliferation [4] [%]	promotion of PAEC migration [5] [%]	increase of p42/44 MAPK phosphorylation in PAEC [6] [%]	p42/44 MAPK phosphorylation in PSMC (in words) [7]	inhibition of the chemotactic effect of PDGF-BB on PSMC (in words) ([8]; 17βE 10^−8 mol/L)	increase of p38 MAPK phosphorylation in PAEC [9] [%]	increase of basal migration of PSMC ([8]; 5 hours, compared to cells treated with FBS 1%) [%]
C[C@]12CC[C@@H]3c4ccc(O)cc4CC[C@H]3[C@@H]1CC[C@@H]2O [17βE, 17-beta-estradiol]	improving	reducing	improving	reversed	95	123	363	317	reversed	inhibited completely	254	
PDGF-BB: platelet-derived growth factor-BB, agonist used to stimulate PSMC migration and MAPK phosphorylation (protein, UniProt P01127 82-190, looked up) Platelet-derived growth …: SLGSLTIAEPAMIAECKTRTEVFEISRRLIDRTNANFLVWPPCVEVQRCSGCCNNRNVQCRPTQVQLRPVQVRKIEIVRKKPIFKKATVTLEDHLACKCETVAAARPVT				increased					increased			141
